{"source": "paper PMC5838219", "about": "(2018)", "key": {"[1]": {"tested_on": "dGsw^121,caged (RNA, riboswitch, (S)-NPE photocage at C4 position of nucleobases of U108, U110 and U112) AAUGAAUAUAAAAGAAACUUAUACAGGGUAGCAUAAUGGGCUACUGACCCCGCCUUCAAACCUAUUUGGAGACUAUAAGUGAAAAACCACUCUUUAAUUAUUAAAGUUUCUUUUUAUGUC", "test": "NMR (1H,15N-TROSY, imino protons)", "conditions": "50 mM KCl, 25 mM K phosphate, 6 eq. Mg2+; pH 6.2, 298 K; 100 µM RNA, 2 eq. ligand; before photolysis"}, "[2]": {"tested_on": "dGsw^121 (RNA, riboswitch) AAUGAAUAUAAAAGAAACUUAUACAGGGUAGCAUAAUGGGCUACUGACCCCGCCUUCAAACCUAUUUGGAGACUAUAAGUGAAAAACCACUCUUUAAUUAUUAAAGUUUCUUUUUAUGUC", "test": "NMR (1H,15N-TROSY, imino protons)", "conditions": "50 mM KCl, 25 mM K phosphate, 6 eq. Mg2+; pH 6.2, 298 K; 100 µM RNA, 2 eq. ligand; after photolysis; antiterminator folds only to ~80%"}}, "data": [{"smiles": "Nc1nc2c(ncn2[C@H]2C[C@H](O)[C@@H](CO)O2)c(=O)[nH]1", "values": [{"measurement": "binding", "setting": "[1]", "result": "yes"}, {"measurement": "binding", "setting": "[2]", "result": "yes"}]}]}
